Values quoted from earlier work as cited in the PKSmart pharmacokinetics tables (Seal et al. 2025).

Assay: Lombardo, Berellini, Obach 2018, Drug Metab Dispos 46:1466, doi 10.1124/dmd.118.082966
Conditions: human; for MRT / Vd / clearance / half-life: in vivo, iv; for fraction unbound: plasma

Compound	MRT [h]	Vd [L/kg]	clearance [mL/min/kg]	half-life [h]	fraction unbound
C[C@H]1COc2c(N3CCN(C)CC3)c(F)c(N)c3c(=O)c(C(=O)O)cn1c23	18.3	2.42	2.2	20.1	0.82
Cc1cc(Nc2cc(N3CCN(C)CC3)nc(Sc3ccc(NC(=O)C4CC4)cc3)n2)n[nH]1	4.5	5.1	18.4	8.4	
CN(C)CCN(Cc1cccs1)c1ccccn1	2	3.3	28	1.6	
CS(=O)(=O)c1ccc2c(c1)N(CCCN1CCC(C(N)=O)CC1)c1ccccc1S2			12.1	4	
COc1ccc2c(c1OC)C(=O)O[C@@H]2[C@H]1c2c(cc3c(c2OC)OCO3)CCN1C	2.28	2.3	16.9	2.13	
CC1=C(CO)C2=C(C)C3(CC3)[C@@](C)(O)C(=O)C2=C1	0.4	3.1	140	0.3	
CCCCCCC(C)(C)c1cc(O)c2c(c1)OC(C)(C)[C@H]1CC=C(CO)C[C@H]21	3.94	5.06	21.4	7.33	
CC(O)C(=O)Nc1c(I)c(C(=O)NC(CO)CO)c(I)c(C(=O)NC(CO)CO)c1I (stereo not given)	2.5	0.28	1.9	2.1	1
CCCCC[C@H](O)/C=C/[C@@H]1C(CCCCCCC(=O)O)C(=O)C[C@H]1O (stereo not given in full)	0.9	2.4	45.4	1.9	
CCN(CC)CCS(=O)(=O)[C@@H]1CCN2C(=O)c3coc(n3)CC(=O)C[C@H](O)/C=C(C)/C=C\CNC(=O)/C=C/[C@@H](C)[C@H](C(C)C)OC(=O)C12 (stereo not given in full)	0.41	0.39	16	0.74	0.82
CCOC(=O)C1=C(C)NC(C)=C(C(=O)OC)C1c1cccc([N+](=O)[O-])c1 (stereo not given)	4.1	6.1	25	8.2	0.02
CN(C)[C@@H]1C(O)=C(C(N)=O)C(=O)[C@@]2(O)C(O)=C3C(=O)c4c(O)ccc(Cl)c4[C@@](C)(O)[C@H]3C[C@@H]12	7.4	0.9	2	7	
NC(=S)NN=Cc1ncccc1N	2.6	0.41	2.65	1.9	
CNS(=O)(=O)CCc1ccc2[nH]cc(C3CCN(C)CC3)c2c1	6.1	2.4	6.6	6.6	
COc1ccc2[nH]cc(CCNC(C)=O)c2c1	1.1	1.1	16.5	1.1	0.39
CC(C)C(=O)OCC(=O)[C@]12O[C@@H](C3CCCCC3)O[C@@H]1C[C@@H]1[C@@H]3CC=C4CC(=O)C=C[C@]4(C)[C@H]3[C@@H](O)C[C@@]12C	1.45	2.9	33.3	1.04	0.01
CC#C[C@]1(O)CC[C@H]2C3=C(C4=C(CC3)CC(=O)CC4)C(c3ccc(N(C)C)cc3)C[C@@]21C (stereo not given in full)	15.7	0.45	0.5	16.6	0.02
CC(C)NCC(O)c1ccc(O)c(O)c1 (stereo not given)	0.43	1.5	56	0.41	0.71
C[C@@H]([C@@](O)(Cn1cncn1)c1ccc(F)cc1F)S(C)(=O)=O	54	0.62	0.19	49	
O=C(N[C@H](CO)[C@H](O)c1ccc([N+](=O)[O-])cc1)C(Cl)Cl	6.5	0.94	2.4	4.6	
O=C(O)CCCc1ccc(N(CCCl)CCCl)cc1	1.5	0.26	2.8	1.1	
NC(=O)c1cc[n+](CC2=C(C(=O)O)N3C(=O)C(NC(=O)C(c4ccccc4)S(=O)(=O)[O-])[C@H]3SC2)cc1 (stereo not given in full)	2.47	0.29	1.96	1.64	
COc1ccc(Cl)cc1C(=O)NCCc1ccc(S(=O)(=O)NC(=O)NC2CCCCC2)cc1	1.6	0.08		2.2	0.021

Compound	MRT [h]	Vd [L/kg]	clearance [mL/min/kg]	half-life [h]	fraction unbound
CC1(C)S[C@@H]2C(NC(=O)Cc3ccccc3)C(=O)N2C1C(=O)O (stereo not given in full)	0.58	0.24	6.9	0.7	0.4
NC(CCC(=O)NC(Cc1ccc(O)c(O)c1)C(=O)O)C(=O)O (stereo not given)	0.74	0.21	4.6	0.5	
CO[C@H]1[C@@H](O)[C@H](N)[C@@H](O[C@H]2O[C@H]([C@H](C)N)CC[C@H]2N)[C@H](O)[C@H]1N(C)C(=O)CN	2.8	0.23	1.37	2	
C#CCC(Cc1cnc2nc(N)nc(N)c2n1)c1ccc(C(=O)NC(CCC(=O)O)C(=O)O)cc1 (stereo not given)	3.7	1.01	4.35	15	0.33
COCC(=O)Nc1c(I)c(C(=O)NCC(O)CO)c(I)c(C(=O)N(C)CC(O)CO)c1I (stereo not given)	2.6	0.22	1.4	2.6	0.99
C=CCc1ccccc1OCC(O)CNC(C)C (stereo not given)	3.6	3.2	15	2.5	
CC1(C)S[C@@H]2C(NC(=O)C(C(=O)O)c3ccccc3)C(=O)N2C1C(=O)O (stereo not given in full)	1.5	0.17	1.9	1.1	
CC(c1ccccn1)c1c(CCN(C)C)sc2ccccc12 (stereo not given)	6.8	1.83	5.31	9.1	
N=C(N)N1CCC[C@@H](CNC(=O)CC(NS(=O)(=O)c2ccc3ccccc3c2)C(=O)N(CC(=O)O)C2CC2)C1 (stereo not given in full)	0.94	0.36		1.9	0.55
CNC(=O)c1c(I)c(NC(C)=O)c(I)c(C(=O)O)c1I	1.2	0.17	2.4	1.3	
C[N+](C)(C)C[C@H](O)CC(=O)[O-]	4.2	0.4	1.6	5	1
CC(=O)N[C@H]1[C@H]([C@H](O)[C@H](O)CO)OC(C(=O)O)=C[C@@H]1NC(=N)N	2.4	0.23	1.6	1.7	
CNCC[C@H](Oc1cccc2ccccc12)c1cccs1			8.57	12	0.04
Cc1nnc(C(C)C)n1C1C[C@H]2CC[C@@H](C1)N2CC[C@@H](NC(=O)C1CCC(F)(F)CC1)c1ccccc1 (stereo not given in full)	4.2			12.8	
CCNC(=O)CCC/C=C\C[C@@H]1[C@@H](/C=C\[C@@H](O)CCc2ccccc2)[C@H](O)C[C@@H]1O		0.67	25	0.45	0.12
NN=c1cc2c(n[nH]1)CCN(C(=O)c1ccccc1)C2	2.7	2.2	13	5.6	
C[C@@H](O[C@H]1OCCN(Cc2nc(=O)n(P(=O)(O)O)[nH]2)[C@H]1c1ccc(F)cc1)c1cc(C(F)(F)F)cc(C(F)(F)F)c1	0.06	0.07	18.6	2.2	0.02
Cc1[nH]c(=O)c(C#N)cc1-c1ccc2nccn2c1	0.97	0.64	11	1.13	
CC(C)(C)C(NC(=O)C(CC1CCCC1)CN(O)C=O)C(=O)N1CCN(Cc2ccc3c(c2)OCO3)CC1 (stereo not given)	5.9	1.1	3.1	9.4	0.2
O=C(NC1CCN(CCc2c[nH]c3ccccc23)CC1)c1ccccc1	4.1	4.9	20	4.3	0.15
O=P(O)(O)C(Sc1ccc(Cl)cc1)P(=O)(O)O	9.5	0.23	0.4	7.7	0.1
CCCn1c(=O)c2[nH]c(C34CCC(CCC(=O)O)(CC3)CC4)nc2n(CCC)c1=O	11.7	0.76	1.08	16	0.1
COc1ccc(C2(C#N)CCC(C(=O)O)CC2)cc1OC1CCCC1 (stereo not given)	8.5	0.23	0.5	7.9	

Compound	MRT [h]	Vd [L/kg]	clearance [mL/min/kg]	half-life [h]	fraction unbound
NCCCCC(NC(=O)C(Cc1cc(Br)c(O)c(Br)c1)NC(=O)N1CCC(N2Cc3ccccc3NC2=O)CC1)C(=O)N1CCN(c2ccncc2)CC1 (stereo not given)	1.9	0.31	2.6	2.5	
CCCCCNC(=N)NN=Cc1c[nH]c2ccc(OC)cc12	4.9	5.3	18	11	
CC(C)CC(NC(=O)C(CCc1ccccc1)NC(=O)CN1CCOCC1)C(=O)NC(Cc1ccccc1)C(=O)NC(CC(C)C)C(=O)[C@@]1(C)CO1 (stereo not given in full)	0.05	0.13	39.5	1.1	0.02
CN(CC(O)=NO)C(=O)C1CCCCC1C(=O)O (stereo not given)	2.8	1	6.3	2.6	1
CC1=CC[C@@H](C(C)(C)O)C[C@@H]1O	3.1	0.43	2.7	1.9	
NC(O)=NO	4.8	0.52	1.5	3.4	
N=C(N)NCCCC(NC(=O)C1CCCN1C(=O)C1CSSCCC(=O)NC(Cc2ccc(O)cc2)C(=O)NC(Cc2ccccc2)C(=O)NC(CCC(N)=O)C(=O)NC(CC(N)=O)C(=O)N1)C(=O)NCC(N)=O (stereo not given)	3.6	0.3	1.4	3	
COc1cccc2c1C(=O)c1c(O)c3c(c(O)c1C2=O)C[C@@](O)(C(=O)CO)C[C@@H]3O[C@H]1C[C@H](N2CCO[C@H](OC)C2)[C@H](O)[C@H](C)O1	53.3	49	15.3	49.2	
COc1c(C)c2c(c(O)c1C/C=C(\C)CCC(=O)O)C(=O)OC2	6.5	0.77	2.33	9.7	0.02
OC(CCN1CCCC1)(c1ccccc1)C1CCCCC1 (stereo not given)	14	0.74	0.86	12	
O=C(/C=C/c1ccc(O)cc1)C1=C(O)[C@](O)([C@@H]2O[C@H](CO)[C@@H](O)[C@H](O)[C@H]2O)C(O)=C([C@@H]2O[C@H](CO)[C@@H](O)[C@H](O)[C@H]2O)C1=O	3.6	0.2	1	2.9	0.22
CCc1nc(N)nc(N)c1-c1ccc(Cl)cc1	140	0.43	0.052	140	0.095
CN(C)CCCNC(=O)/C(=C/CCCCC(O)=NO)COc1cccc2ccccc12	4.1	0.45	1.82	2.1	
CCOP(=O)(OCC)[C@@H](NC(=O)[C@]1(O)[C@@H](O)[C@@]2(CC)C=CCN3CC[C@]4(c5cc([C@@]6(C(=O)OC)C[C@H]7C[N@@](CCc8c6[nH]c6ccccc86)C[C@@](O)(CC)C7)c(OC)cc5N(C)[C@@H]14)[C@@H]32)C(C)C	22.2	4.67	3.5	34.3	0.1
O=C(/C=C/c1ccc(O)c(O)c1)O[C@@H]1C[C@](O)(C(=O)O)C[C@@H](OC(=O)/C=C/c2ccc(O)c(O)c2)[C@H]1O	1.05	4.82	75.8	3.17	
C[C@@H](N)[C@H]1CC[C@@H](N)[C@@H](O[C@@H]2[C@@H](N)[C@@H](O)[C@@H](O)[C@@H](N(C)C(=O)CN)[C@H]2O)O1	3.3	0.27	1.37	2.9	
O=C(/C=C/c1ccc(O)c2c1C(C(=O)OC(Cc1ccc(O)c(O)c1)C(=O)O)[C@@H](c1ccc(O)c(O)c1)O2)OC(Cc1ccc(O)c(O)c1)C(=O)O (stereo not given in full)	0.42	0.14	7.17	0.29	0.08
COC(=O)O[C@@]12CO[C@@H]1C[C@H](O)[C@@]1(C)C(=O)C(OC(C)=O)=C3C(C)[C@@H](OC(=O)C(O)C(NC(=O)c4ccccc4)c4ccccc4)C[C@@](O)([C@@H](OC(=O)c4ccccc4)[C@H]21)C3(C)C (stereo not given in full)	13	6.9	8.6	31	
Nc1n[n+]([O-])c2ccccc2[n+]1[O-]					0.81
CN(C)CCn1nnnc1SCC1=C(C(=O)O)N2C(=O)C(NC(=O)Cc3csc(N)n3)[C@H]2SC1 (stereo not given in full)	0.76	0.26	5.8	0.84	0.5
Cc1cc(=O)n(-c2ccccc2)[nH]1	2.65	0.23	1.42	2.36	0.89
COc1ccc(-c2nc3cc(C4=NNC(=O)CC4C)ccc3[nH]2)cc1 (stereo not given)	2.2	2		1.8	0.024
CCNC(=O)C1C[C@@H](n2ccc3c(N[C@H](CC)Cc4sccc4Cl)ncnc32)[C@H](O)[C@@H]1O (stereo not given in full)	1.18	0.84	12	1.33	0.03
